Experimental data as given in patent US11226337B2, “Chemoproteomic profiling of protein electrophilic and oxidative post-translational modifications” (Zenagem, LLC, priority 2017, dated 2022).

Key:
Assay in all cases: SILAC RP-ABPP
[1] = biological target: T1, LEPRE1 Prolyl 3hydroxylase 1 (Q32P28) (Homo sapiens, UniProt Q32P28); assay type: cell-based; details: SILAC H/L, MDA-MB-231
T1 construct: In Situ Labelling of Cells with Hydrazine Probes for MS Experiments; endogenous in cells
T1 sequence (Q32P28 23-736): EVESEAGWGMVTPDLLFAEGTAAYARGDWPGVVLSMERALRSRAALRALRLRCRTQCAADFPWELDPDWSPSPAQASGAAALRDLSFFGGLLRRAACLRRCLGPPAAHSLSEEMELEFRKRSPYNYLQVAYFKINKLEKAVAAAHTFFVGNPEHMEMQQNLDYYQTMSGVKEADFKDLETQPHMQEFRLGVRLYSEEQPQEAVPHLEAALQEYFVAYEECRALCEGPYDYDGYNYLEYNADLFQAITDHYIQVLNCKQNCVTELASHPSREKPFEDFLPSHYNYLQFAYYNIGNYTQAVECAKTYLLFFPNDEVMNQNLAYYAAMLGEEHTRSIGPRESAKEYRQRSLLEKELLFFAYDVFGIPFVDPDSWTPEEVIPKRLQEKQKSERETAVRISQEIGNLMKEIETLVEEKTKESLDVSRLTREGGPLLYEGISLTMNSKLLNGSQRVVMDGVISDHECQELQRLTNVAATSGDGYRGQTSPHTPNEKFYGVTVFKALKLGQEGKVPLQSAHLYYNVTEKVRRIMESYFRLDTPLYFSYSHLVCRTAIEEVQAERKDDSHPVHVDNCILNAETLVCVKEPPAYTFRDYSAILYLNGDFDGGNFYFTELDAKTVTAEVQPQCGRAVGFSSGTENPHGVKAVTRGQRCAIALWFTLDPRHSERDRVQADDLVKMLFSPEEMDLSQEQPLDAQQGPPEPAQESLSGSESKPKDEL
Method: (§1) For MS-based experiments, labelling was performed in a similar manner as described above in Example 2, maintaining the same concentrations of probes. Modifications to this protocol included using isotopically ‘light’ and ‘heavy’ SILAC cells that were also grown to near complete confluence prior to treatment. Isotopically light cells were treated with the non-clickable hydrazine probe (at the same concentration as the probe in ‘enrichment’ experiments) or the probe in the presence of 10-fold excess non-clickable hydrazine probe as a competitor (in ‘competition’ experiments). Isotopically heavy cells were treated with the probe for both types of experiments. These treatments were performed in non-SILAC media. Following treatments, cells were washed with cold PBS to remove the probe-containing media, harvested by scraping, collected by centrifugation (1,400 g, 3 min, 4° C.), washed again by resuspension in cold PBS and frozen as pellets at −80° C. until use.
(§2) The fractionated equimolar mixture of heavy and light soluble proteomes (1-1.5 mg) was diluted to 1 mL in PBS. Click reactions were scaled accordingly (except for biotin-azide) to maintain final concentrations of 0.1 mM TBTA, 1 mM CuSO4, 100 μM biotin-azide (10 mM in DMSO) and 1 mM TCEP. The mixture was vortexed and placed on a rotator at ambient temperature for 1 hour. Sequential addition of and mixture with pre-chilled methanol (MeOH, 2 mL), chloroform (CHCl3, 0.5 mL) and PBS (1 mL) on ice quenched the reaction. The precipitated proteome was centrifuged (5,000 g, 10 min, 4° C.) to fractionate the protein interphase from the organic and aqueous solvent layers. The protein pellet was washed with cold 1:1 MeOH:CHCl3 (3×1 mL), mildly sonicated in cold 4:1 MeOH:CHCl3 (2.5 mL) and pelleted once more by centrifugation (5,000 g, 10 min, 4° C.) to ensure click reagents were efficiently removed.
(§3) Heavy and light parent ion chromatograms associated with successfully identified peptides were extracted and compared using CIMAGE software as previously described^69. At least one ion of a co-eluting heavy-light pair must be accurately identified from a fragmentation event that occurred within the retention time window (±10 min) of parent ion elution. To ensure that the correct pair of peaks is quantified, chromatograms are extracted within a 10 ppm error tolerance of the predicted m/z, the signal-to-noise ratio must be >2.5 and the ‘co-elution correlation score’ and ‘envelope correlation score’ must have R^2 values ≥0.8. In addition, peptides detected as ‘singletons,’ where only the heavy ion of a peptide pair was identified, but for which passed all other filtering parameters, are given a default assigned ratio of ‘20,’ which is defined as any measured ratio that is ≥20.
(§4) To further eliminate false positives and any stochastic variability in the data, protein ratios were then determined by the median peptide ratio derived from three or more unique quantified peptides. Protein ratios that complied with these criteria from a single experiment were then averaged with ratios acquired from ≥3 replicates to provide final values for each type of experiment in both cell lines with both probes. […] Most importantly, there are no robustly measured ratios for proteins identified as probe 1 targets that had measured ratios of ˜1 with probe 2. Probe targets in HEK293T and MDA-MB-231 cells represent data combined from ≥3 independent biological replicates with each cell type performed with several independent batches of synthesized probes over a period of almost two years. […]

[2] = biological target: T2, TPP1 Tripeptidylpeptidase 1 (O14773) (Homo sapiens, UniProt O14773); assay type: cell-based; details: SILAC H/L, MDA-MB-231
T2 construct: In Situ Labelling of Cells with Hydrazine Probes for MS Experiments; endogenous in cells; host or cells: HEK293T and MDA-MB-231
T2 sequence (O14773 196-563): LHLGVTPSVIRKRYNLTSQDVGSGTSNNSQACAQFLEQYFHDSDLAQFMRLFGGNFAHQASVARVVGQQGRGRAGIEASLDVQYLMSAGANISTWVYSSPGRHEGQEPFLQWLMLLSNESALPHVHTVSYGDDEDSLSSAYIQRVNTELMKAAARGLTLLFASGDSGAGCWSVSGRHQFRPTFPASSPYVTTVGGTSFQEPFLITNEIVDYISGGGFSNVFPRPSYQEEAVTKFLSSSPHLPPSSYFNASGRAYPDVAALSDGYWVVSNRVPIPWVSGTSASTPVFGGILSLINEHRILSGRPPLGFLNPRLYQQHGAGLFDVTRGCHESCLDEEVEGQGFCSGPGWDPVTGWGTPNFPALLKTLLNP
Method: as §1, §2, §3, §4

[3] = test system: Uncharacterized protein (H7C469); assay type: cell-based, human; details: SILAC H/L
Method: as §1, with “use. […]” for “use.”
as §3, with “At least one ion of a co-eluting heavy-light pair must be accurately identified from a fragmentation event that occurred within the retention time window (±10 min) of parent ion elution.” left out
To further eliminate false positives and any stochastic variability in the data, protein ratios were then determined by the median peptide ratio derived from three or more unique quantified peptides. […] Most importantly, there are no robustly measured ratios for proteins identified as probe 1 targets that had measured ratios of ˜1 with probe 2. […]

Row | Compound | enrichment ratioavg ([1]; probe 1 3 mM 0.5 h vs probe 3) | competition ratioavg ([1]; probe 1 vs probe 1+10x probe 3) | enrichment ratioavg ([2]; probe 1 3 mM 0.5 h vs probe 3) | competition ratioavg ([2]; probe 1 vs probe 1+10x probe 3) | competition ratioavg ([3]; probe 1 vs probe 1+10x probe 3, cell line not given) | enrichment ratioavg ([1]; probe 2 1 mM 0.5 h vs probe 4) | competition ratioavg ([1]; probe 2 vs probe 2+10x probe 4) | enrichment ratioavg ([2]; probe 2 1 mM 0.5 h vs probe 4) | competition ratioavg ([2]; probe 2 vs probe 2+10x probe 4) | enrichment ratioavg ([3]; probe 2 1 mM 0.5 h vs probe 4, MDA-MB-231) | competition ratioavg ([3]; probe 2 vs probe 2+10x probe 4, MDA-MB-231)
1 | C#CCNN.Cl [probe 1, prop-2-yn-1-ylhydrazine hydrochloride] | 8 | 3 | 15 | 3 | 2 | – | – | – | – | – | –
2 | C#CCCNC(=O)c1ccc(NN)cc1.Cl [probe 2, N-(but-3-yn-1-yl)-4-hydrazinylbenzamide hydrochloride] | – | – | – | – | – | 8 | 2 | 18 | 4 | 14 | 5
